EC50 data for two molecules are collected here from US20230173077A1 (AJK BIOPHARMACEUTICAL, LLC, priority 2020, published 2023).

pEC50: −log10 of the molar value. Read-outs that look alike come from different tables or passages of the source.

The test has as its system HCoV-229E. The experiment in a line: Antiviral activity and toxicity against HCoV-229E. The format is cell-based.

The pEC50 is the negative decadic logarithm of the EC50, by convention in mol/L. Molecule `CCCCCCCCCCCCCC(=O)OCC1OC(n2cc(F)c(N)nc2=O)CS1` (centres unmarked) [5′-O-tetradecanoyl ester conjugate of 2′,3′-dideoxy-5-fluoro-3′-thiacytidine] had a pEC50 of 4.09.

In the case of `CCC(CC)COC(=O)[C@H](C)N[P@](=O)(OC[C@H]1O[C@@](C#N)(c2ccc3c(N)ncnn23)[C@H](O)[C@@H]1O)Oc1ccccc1` [RDV, Remdesivir], the pEC50 (Human coronavirus 229E) was 7.15.
